Laboratory results from ChEMBL document CHEMBL1148026, “Oxadiazole mannich bases: synthesis and antimycobacterial activity” (Bioorg Med Chem Lett, 2007).
Values after ≈ are worked out from the molar mass of the structure shown.

What was measured:
[1] = tested on: Vero; assay: Toxicity against Vero cells at 62.5 ug/ml after 72 hrs by MTT assay; assay type: cell-based; details: chlorocebus sabaeus
[2] = tested on: Mycobacterium tuberculosis; assay: Antimycobacterial activity against Mycobacterium tuberculosis H37Rv by agar dilution method using double dilution technique; assay type: functional

O=S(=O)(c1ccc(NC(c2ccccc2)n2nc(COc3cccc4ccccc34)oc2=S)cc1)c1ccc(NC(c2ccccc2)n2nc(COc3cccc4ccccc34)oc2=S)cc1 (centres undefined)
Activity [1]: Non-toxic
MIC [2]: 0.96 µM (≈ 0.903 µg/mL)

O=S(=O)(c1ccc(NC(c2ccccc2)n2nc(Cc3ccccc3)oc2=S)cc1)c1ccc(NC(c2ccccc2)n2nc(Cc3ccccc3)oc2=S)cc1 (centres undefined)
Activity [1]: Non-toxic
MIC [2]: 1.29 µM (≈ 1.04 µg/mL)

O=S(=O)(c1ccc(NC(Cc2ccco2)n2nc(COc3ccc4ccccc4c3)oc2=S)cc1)c1ccc(NC(Cc2ccco2)n2nc(COc3ccc4ccccc4c3)oc2=S)cc1 (centres undefined)
Activity [1]: Non-toxic
MIC [2]: 0.1 µM (≈ 0.0949 µg/mL)

O=S(=O)(c1ccc(NC(Cc2ccco2)n2nc(COc3ccccc3)oc2=S)cc1)c1ccc(NC(Cc2ccco2)n2nc(COc3ccccc3)oc2=S)cc1 (centres undefined)
Activity [1]: Non-toxic
MIC [2]: 0.14 µM (≈ 0.119 µg/mL)

O=[N+]([O-])c1ccc(-c2nn(C(Nc3ccc(S(=O)(=O)c4ccc(NC(c5ccccc5)n5nc(-c6ccc([N+](=O)[O-])cc6)oc5=S)cc4)cc3)c3ccccc3)c(=S)o2)cc1 (centres undefined)
Activity [1]: Non-toxic
MIC [2]: 1.94 µM (≈ 1.69 µg/mL)

O=S(=O)(c1ccc(NC(c2ccccc2)n2nc(-c3ccc(Nc4ccccc4)cc3)oc2=S)cc1)c1ccc(NC(c2ccccc2)n2nc(-c3ccc(Nc4ccccc4)cc3)oc2=S)cc1 (centres undefined)
Activity [1]: Non-toxic
MIC [2]: 1.65 µM (≈ 1.59 µg/mL)

O=[N+]([O-])c1ccc(-c2nn(C(Cc3ccco3)Nc3ccc(S(=O)(=O)c4ccc(NC(Cc5ccco5)n5nc(-c6ccc([N+](=O)[O-])cc6)oc5=S)cc4)cc3)c(=S)o2)cc1 (centres undefined)
Activity [1]: Non-toxic
MIC [2]: 0.42 µM (≈ 0.369 µg/mL)

O=S(=O)(c1ccc(NC(Cc2ccco2)n2nc(-c3ccc(Nc4ccccc4)cc3)oc2=S)cc1)c1ccc(NC(Cc2ccco2)n2nc(-c3ccc(Nc4ccccc4)cc3)oc2=S)cc1 (centres undefined)
Activity [1]: Non-toxic
MIC [2]: 0.66 µM (≈ 0.641 µg/mL)

O=S(=O)(c1ccc(NC(Cc2ccco2)n2nc(COc3cccc4ccccc34)oc2=S)cc1)c1ccc(NC(Cc2ccco2)n2nc(COc3cccc4ccccc34)oc2=S)cc1 (centres undefined)
Activity [1]: Non-toxic
MIC [2]: 0.72 µM (≈ 0.683 µg/mL)

O=S(=O)(c1ccc(NC(Cc2ccco2)n2nc(Cc3ccccc3)oc2=S)cc1)c1ccc(NC(Cc2ccco2)n2nc(Cc3ccccc3)oc2=S)cc1 (centres undefined)
Activity [1]: Non-toxic
MIC [2]: 0.24 µM (≈ 0.196 µg/mL)

O=S(=O)(c1ccc(NC(c2ccccc2)n2nc(-c3ccccc3)oc2=S)cc1)c1ccc(NC(c2ccccc2)n2nc(-c3ccccc3)oc2=S)cc1 (centres undefined)
Activity [1]: Non-toxic
MIC [2]: 1.72 µM (≈ 1.34 µg/mL)

O=S(=O)(c1ccc(NC(c2ccccc2)n2nc(COc3ccccc3)oc2=S)cc1)c1ccc(NC(c2ccccc2)n2nc(COc3ccccc3)oc2=S)cc1 (centres undefined)
Activity [1]: Non-toxic
MIC [2]: 0.98 µM (≈ 0.824 µg/mL)

O=S(=O)(c1ccc(NC(c2ccccc2)n2nc(COc3ccc4ccccc4c3)oc2=S)cc1)c1ccc(NC(c2ccccc2)n2nc(COc3ccc4ccccc4c3)oc2=S)cc1 (centres undefined)
Activity [1]: Non-toxic
MIC [2]: 0.42 µM (≈ 0.395 µg/mL)

O=S(=O)(c1ccc(NC(Cc2ccco2)n2nc(-c3ccccc3)oc2=S)cc1)c1ccc(NC(Cc2ccco2)n2nc(-c3ccccc3)oc2=S)cc1 (centres undefined)
Activity [1]: Non-toxic
MIC [2]: 0.94 µM (≈ 0.742 µg/mL)

NNC(=O)c1ccncc1 [ISONIAZID]
MIC [2]: 0.73 µM (≈ 0.1 µg/mL)
